The source of these data is patent US20040039554A1, “Iterative analysis of non-responding population in the design of pharmacogenetic studies” (priority 2000, published 2004).

Where a name gives a salt, the structure may show the parent alone.

Experiment [1] concerns patients with Irritable Bowel Syndrome (IBS). The note with it: double blind, placebo controlled studies; cited from earlier work.
Experiment [2] concerns female patients with IBS (non-constipated). The experiment can be described thus: Relief of IBS symptoms in double-blind, placebo controlled clinical trials of alosetron, stratified by 5HTT genotype. Type of experiment: in vivo, human. Particulars: in each of the three 5HTT genotypes. From the text:
FIG. 1 is a graph based on data collected from female patients enrolled in clinical trials of alosetron for the treatment of IBS. The study population was comprised of non-constipated individuals with IBS. The subjects were divided into 5HTT genotypes. Of the 219 subjects, 71(32.4%) were genotype del/del (deletion/deletion, alternatively denoted as “1/1”) 5HTT, 75 (34.2%) were genotype del/ins (deletion/insertion, alternatively denoted as “1/2”) 5HTT and 73 (33.3%) were genotype ins/ins (insert/insert, alternatively denoted as “2/2”) 5HTT. […] “Response” was defined as relief of IBS symptoms (abdominal pain and discomfort) during six weeks of a twelve week treatment study. Two hundred and nineteen subjects, received either alosetron (102 subjects) or matched placebo (117 subjects). The proportion of patients achieving response following treatment with alosetron was 68% (21/31) for del/del 5HTT, 64% (21/33) for del/ins 5HTT and 58% (22/38) for ins/ins 5HTT. The proportion of patients achieving response following treatment with placebo was 58% (23/40) for del/del 5HTT, 38% (16/42) for del/ins 5HTT and 34% (12/35) for ins/ins 5HTT. […]
The subjects' response to alosetron in the clinical trial setting was reviewed and correlated with genotype. […] The incidence of various other effects, including constipation, was also recorded. […]

Take `Cc1[nH]cnc1CN1CCc2c(c3ccccc3n2C)C1=O` [alosetron, Alosetron hydrochloride]: in experiment [1], the “effect on pain and bowel function in patients with IBS” value was “reduce pain and improve bowel function”. Moreover, the “effectiveness compared with placebo in relieving IBS symptoms” value in experiment [2] is “more effective than placebo”.
